Measurements reported in patent US9783523B2, “N-acylimino heterocyclic compounds” (BASF SE, priority 2013, dated 2017).

Tests used:
Type in all cases: in vivo
Myzus persicae = assay: Green peach aphid (Myzus persicae), systemic control, liquid artificial diet under membrane in 96-well microtiter plates; conditions: 72 h, read-out: mortality in comparison with untreated controls
Source text: General conditions: If not otherwise specified, most test solutions are to be prepared as follows: The active compound is to be dissolved at the desired concentration in a mixture of 1:1 (vol:vol) distilled water:acteon. Further, the test solutions are to be prepared at the day of use (and, if not otherwised specified, in general at concentrations wt/vol).
For evaluating control of green peach aphid (Myzus persicae) through systemic means, the test unit consists of 96-well-microtiter plates containing liquid artificial diet under an artificial membrane.
The compounds are formulated using a solution containing 75% v/v water and 25% v/v DMSO. Different concentrations of formulated compounds are pipetted into the aphid diet, using a custom built pipetter, at two replications.
After application, 5-8 adult aphids are placed on the artificial membrane inside the microtiter plate wells. The aphids are then allowed to suck on the treated aphid diet and incubated at about 23+1° C. and about 50+5% relative humidity for 3 days. Aphid mortality and fecundity is then visually assessed.

Megoura viciae = assay: Vetch aphid (Megoura viciae), sprayed bean leaf disks in microtiter plates; conditions: foliar, 144 h, read-out: mortality in comparison with untreated controls
Procedure: The active compounds were formulated in 3:1 (vol:vol) water:DMSO with different concentrations of formulated compounds.
Bean leaf disks were placed into microtiterplates filled with 0.8% agar-agar and 2.5 ppm OPUS™. The leaf disks were sprayed with 2.5 μl of the test solution and 5 to 8 adult aphids were placed into the microtiter plates which were then closed and kept at 23±1° C. and 50±5% relative humidity under fluorescent light for 6 days. Mortality was assessed on the basis of vital, reproduced aphids. Aphid mortality and fecundity was then visually assessed.

Aphis gossypi = assay: Cotton aphid (Aphis gossypi), infested cotton plants sprayed; conditions: 120 h, read-out: mortality in comparison with untreated controls
Procedure: (§1) The active compounds were formulated in cyclohexanone as a 10,000 ppm solution supplied in 1.3 ml ABgene® tubes. These tubes were inserted into an automated electrostatic sprayer equipped with an atomizing nozzle and they served as stock solutions for which lower dilutions were made in 1:1 (vol:vol) water:aceton. A nonionic surfactant (Kinetic®) was included in the solution at a volume of 0.01% (v/v).
Cotton plants at the cotyledon stage were infested with aphids prior to treatment by placing a heavily infested leaf from the main aphid colony on top of each cotyledon. Aphids were allowed to transfer overnight to accomplish an infestation of 80-100 aphids per plant and the host leaf was removed. The infested plants were then sprayed by an automated electrostatic plant sprayer equipped with an atomizing spray nozzle. The plants were dried in the sprayer fume hood, removed from the sprayer, and then maintained in a growth room under fluorescent lighting in a 24-hr photoperiod at 25° C. and 20-40% relative humidity. Aphid mortality on the treated plants, relative to mortality on untreated control plants, was determined after 5 days.

Aphis craccivora = assay: Cowpea aphid (Aphis craccivora), potted cowpea plants sprayed; conditions: 72 h, read-out: mortality in comparison with untreated controls
Procedure: The active compound is dissolved at the desired concentration in a mixture of 1:1 (vol:vol) distilled water:acetone. Surfactant (Alkamuls® EL 620) is added at a rate of 0.1% (vol/vol). The test solution is prepared at the day of use.
Potted cowpea plants are colonized with approximately 50-100 aphids of various stages by manually transferring a leaf tissue cut from infested plant 24 hours before application. Plants are sprayed after the pest population has been recorded. Treated plants are maintained on light carts at about 28° C. Percent mortality is assessed after 72 hours.

Dichromothrips corbetti = assay: Orchid thrips (Dichromothrips corbetti), floral-immersion technique; conditions: 72 h, read-out: mortality in comparison with untreated controls
Procedure: Dichromothrips corbetti adults used for bioassay are obtained from a colony maintained continuously under laboratory conditions. For testing purposes, the test compound is diluted in a 1:1 mixture of acetone:water (vol:vol), plus 0.01% vol/vol Alkamuls® EL 620 surfactant.
Thrips potency of each compound is evaluated by using a floral-immersion technique. Plastic petri dishes are used as test arenas. All petals of individual, intact orchid flowers are dipped into treatment solution and allowed to dry. Treated flowers are placed into individual petri dishes along with about 20 adult thrips. The petri dishes are then covered with lids. All test arenas are held under continuous light and a temperature of about 28° C. for duration of the assay. After 3 days, the numbers of live thrips are counted on each flower, and along inner walls of each petri dish. The percent mortality is recorded 72 hours after treatment.

Nephotettix virescens = assay: Rice green leafhopper (Nephotettix virescens), sprayed rice seedlings; conditions: 72 h, read-out: mortality in comparison with untreated controls
Procedure: (§2) Rice seedlings are cleaned and washed 24 hours before spraying. The active compounds are formulated in 50:50 acetone:water (vol:vol), and 0.1% vol/vol surfactant (EL 620) is added. Potted rice seedlings are sprayed with 5 ml test solution, air dried, placed in cages and inoculated with 10 adults. Treated rice plants are kept at about 28-29° C. and relative humidity of about 50-60%. Percent mortality is recorded after 72 hours.

Nilaparvata lugens = assay: Rice brown plant hopper (Nilaparvata lugens), sprayed rice seedlings; conditions: 72 h, read-out: mortality in comparison with untreated controls
Procedure: as §2, with “compounds is” for “compounds are”, “acetone:water (vol:vol)” for “acetone:water (vol:vol),”, “620) was” for “620) is”

Anthonomus grandis = assay: Boll weevil (Anthonomus grandis), eggs on insect diet in 24-well microtiter plates; conditions: 120 h, read-out: mortality in comparison with untreated controls
Procedure: The compounds were formulated in 3:1 (vol:vol) water:DMSO.
For evaluating control of boll weevil (Anthonomus grandis) the test unit consisted of 24-well-microtiter plates containing an insect diet and 20-30 A. grandis eggs. Different concentrations of formulated compounds were sprayed onto the insect diet at 20 μl, using a custom built micro atomizer, at two replications. After application, the microtiter plates were incubated at 23±1° C. and 50±5% relative humidity for 5 days. Egg and larval mortality was then visually assessed.

Ceratitis capitata = assay: Mediterranean fruitfly (Ceratitis capitata), eggs on insect diet in microtiter plates; conditions: 120 h, read-out: mortality in comparison with untreated controls
Procedure: For evaluating control of Mediterranean fruitfly (Ceratitis capitata) the test unit consisted of microtiter plates containing an insect diet and 50-80 C. capitata eggs.
The compounds were formulated using a solution containing 75% v/v water and 25% v/v DMSO. Different concentrations of formulated compounds were sprayed onto the insect diet at 5 μl, using a custom built micro atomizer, at two replications.
After application, microtiter plates were incubated at about 28±1° C. and about 80±5% relative humidity for 5 days. Egg and larval mortality was then visually assessed.

Bemisia argentifolii = assay: Silverleaf whitefly (Bemisia argentifolii) adults, sprayed cotton plants; conditions: 72 h, read-out: mortality in comparison with untreated controls
Procedure: as §1, with “water: aceton.” for “water:aceton.”
Cotton plants at the cotyledon stage (one plant per pot) were sprayed by an automated electrostatic plant sprayer equipped with an atomizing spray nozzle. The plants were dried in the sprayer fume hood and then removed from the sprayer. Each pot was placed into a plastic cup and 10 to 12 whitefly adults (approximately 3-5 days old) were introduced. The insects were collected using an aspirator and 0.6 cm, nontoxic Tygon® tubing (R-3603) connected to a barrier pipette tip. The tip, containing the collected insects, was then gently inserted into the soil containing the treated plant, allowing insects to crawl out of the tip to reach the foliage for feeding. Cups were covered with a reusable screened lid (150-micron mesh polyester screen PeCap from Tetko, Inc.). […] Mortality was assessed 3 days after treatment, compared to untreated control plants.

Heliothis virescens = assay: Tobacco budworm (Heliothis virescens), eggs on insect diet in 96-well microtiter plates; conditions: 120 h, read-out: mortality in comparison with untreated controls
Procedure: For evaluating control of tobacco budworm (Heliothis virescens) the test unit consisted of 96-well-microtiter plates containing an insect diet and 15-25 H. virescens eggs.
The compounds were formulated using a solution containing 75% v/v water and 25% v/v DMSO. Different concentrations of formulated compounds were sprayed onto the insect diet at 10 μl, using a custom built micro atomizer, at two replications.
After application, microtiter plates were incubated at about 28+1° C. and about 80+5% relative humidity for 5 days. Egg and larval mortality was then visually assessed.

Plutella xylostella = assay: Diamond back moth (Plutella xylostella), dipped cabbage leaves; conditions: 72 h, read-out: mortality in comparison with untreated controls
Procedure: The active compound is dissolved at the desired concentration in a mixture of 1:1 (vol:vol) distilled water:aceteone. Surfactant (Alkamuls® EL 620) is added at a rate of 0.1% (vol/vol). The test solution is prepared at the day of use.
Leaves of cabbage were dipped in test solution and air-dried. Treated leaves were placed in petri dish eslined with moist filter paper and inoculated with ten 3rd instar larvae. Mortality was recorded 72 hours after treatment. Feeding damages were also recorded using a scale of 0-100%.

Spodoptera eridania = assay: Southern armyworm (Spodoptera eridania), sprayed lima bean plants; conditions: 96 h, read-out: mortality in comparison with untreated controls
Procedure: as §1, with “in” for “in 1.3 ml ABgene®”, “The” for “These”, “50% acetone:50% water (v/v).” for “1:1 (vol:vol) water:aceton.”
Lima bean plants (variety Sieva) were grown 2 plants to a pot and selected for treatment at the 1st true leaf stage. Test solutions were sprayed onto the foliage by an automated electrostatic plant sprayer equipped with an atomizing spray nozzle. The plants were dried in the sprayer fume hood and then removed from the sprayer. Each pot was placed into perforated plastic bags with a zip closure. About 10 to 11 armyworm larvae were placed into the bag and the bags zipped closed. Test plants were maintained in a growth room at about 25° C. and about 20-40% relative humidity for 4 days, avoiding direct exposure to fluorescent light (24 hour photoperiod) to prevent trapping of heat inside the bags. Mortality and reduced feeding were assessed 4 days after treatment, compared to untreated control plants.

Nezara viridula = assay: Green soldier stink bug (Nezara viridula), sprayed soybean pods in Petri dishes; conditions: 120 h, read-out: mortality in comparison with untreated controls
Procedure: The active compound is dissolved at the desired concentration in a mixture of 1:1 (vol:vol) distilled water:aceteone. Surfactant (Kinetic HV) is added at a rate of 0.01% (vol/vol). The test solution is prepared at the day of use.
Soybean pods were placed in 90×50 mm glass Petri dishes lined with moist filter paper and inoculated with ten late 3rd instar N. viridula. Using a hand atomizer, an approximately 2 ml solution is sprayed into each Petri dish. Treated cups were kept at about 25-26° C. and relative humidity of about 65-70%. Percent mortality was recorded after 5 days.

CO/N=C/C(=O)/N=c1\ccccn1Cc1ccc(Cl)nc1 [Compound I-15]
≥ 75%: mortality at 2500 ppm (Myzus persicae) | mortality at 2500 ppm (Megoura viciae) | mortality at 300 ppm (Aphis gossypi) | mortality at 500 ppm (Aphis craccivora) | mortality at 500 ppm (Dichromothrips corbetti) | mortality at 300 ppm (Nephotettix virescens) | mortality at 500 ppm (Nilaparvata lugens) | mortality at 2500 ppm (Anthonomus grandis) | mortality at 2500 ppm (Ceratitis capitata) | mortality at 300 ppm (Bemisia argentifolii) | mortality at 2500 ppm (Heliothis virescens) | mortality at 500 ppm (Plutella xylostella) | mortality at 300 ppm (Spodoptera eridania) | mortality at 500 ppm (Nezara viridula)
